Results as given in patent US20230092001A1, “FURANEOL GLYCOSIDE COMPOUND, PHARMACEUTICAL COMPOSITION THEREOF, PREPARATION METHOD THEREFOR, AND APPLICATION THEREOF” (priority 2019, published 2023).

Tested on: ulcerative colitis model (dextran sodium sulphate)
Test: Effect example 2: therapeutic effect on ulcerative colitis, dextran sodium sulphate model, oral gavage, 14 days
Type: in vivo, C57 mice
Settings: for Weight effect compared with the positive control drug SASP (in words): 40 mg/kg oral gavage vs SASP 30 mg/kg oral gavage; for Effect on the reduction of weight in mice (in words): 40 mg/kg oral gavage, vs ulcerative colitis model group; for Average colon length of mice: day 14
Procedure: Thirty-five 10-week-old male C57 mice, SPF class animal house, temperature 20-26° C., humidity 40%-70%, alternating light-dark periods (12 h/12 h).
Quarantine-qualified animals with similar weights were selected for the experiment.
Mice in the blank control group were given normal drinking water throughout the experiment. The other 6 groups of mice were given drinking water containing 2% dextran sodium sulphate from day 1 to day 5, normal drinking water from day 6 to day 7, drinking water containing 2% dextran sodium sulphate from day 8 to day 12, and normal drinking water from day 13 to day 14. The experiment ended on day 14. All groups were administered by oral gavage once a day according to table 7, until the end of the experiment on day 14.
(1) The mice were weighed daily.
(2) Blood samples were collected from the orbital vein on day 14 and stored at −80° C.
(3) On day 14, the mice were sacrificed by cervical vertebra dislocation, the colon was removed and a small amount of fecal was taken from the colon and left as a sample. The colon length and colon weight were measured. A portion of the colon and the fecal sample was stored at −80° C.

[1] = Day 1, treatment group 40 mg/kg oral gavage
[2] = Day 2, treatment group 40 mg/kg oral gavage
[3] = Day 3, treatment group 40 mg/kg oral gavage
[4] = Day 4, treatment group 40 mg/kg oral gavage
[5] = Day 5, treatment group 40 mg/kg oral gavage
[6] = Day 6, treatment group 40 mg/kg oral gavage
[7] = Day 7, treatment group 40 mg/kg oral gavage
[8] = Day 8, treatment group 40 mg/kg oral gavage
[9] = Day 9, treatment group 40 mg/kg oral gavage
[10] = Day 10, treatment group 40 mg/kg oral gavage
[11] = Day 11, treatment group 40 mg/kg oral gavage
[12] = Day 12, treatment group 40 mg/kg oral gavage
[13] = Day 13, treatment group 40 mg/kg oral gavage
[14] = Day 14, treatment group 40 mg/kg oral gavage
[15] = treatment group 40 mg/kg oral gavage

| SMILES | Weight effect compared with the positive control drug SASP (in words) | Effect on the reduction of weight in mice (in words) | Average weight of mice [1] | Average weight of mice [2] | Average weight of mice [3] | Average weight of mice [4] | Average weight of mice [5] | Average weight of mice [6] | Average weight of mice [7] | Average weight of mice [8] | Average weight of mice [9] | Average weight of mice [10] | Average weight of mice [11] | Average weight of mice [12] | Average weight of mice [13] | Average weight of mice [14] | Average colon length of mice [15] | further results |
| --- | --- | --- | --- | --- | --- | --- | --- | --- | --- | --- | --- | --- | --- | --- | --- | --- | --- | --- |
| CC(=O)OC[C@H]1O[C@@H](OC2=C(C)OC(=C(C)C)C2=O)[C@H](OC(C)=O)[C@@H](OC(C)=O)[C@H]1OC(C)=O [Compound I-4, 4-O-[(2,3,4,6-tetra-O-acetyl)-β-D-galactosyl]-5-methyl-2-(1-methylethylidene)-3(2H)-furanone] | better than the positive control drug | significant improvement in the reduction of weight in mice | 26.72 g | 26.76 g | 26.72 g | 26.72 g | 26.44 g | 26.36 g | 24.82 g | 23.44 g | 23.3 g | 23.3 g | 24.02 g | 24.14 g | 24.5 g | 24.68 g | 6.2 cm |  |
| O=C(O)c1cc(/N=N/c2ccc(S(=O)(=O)Nc3ccccn3)cc2)ccc1O [SASP, salazosulfapyridine, reference compound] |  |  |  |  |  |  |  |  |  |  |  |  |  |  |  |  |  | Average weight of mice (Day 1, positive control group 30 mg/kg oral gavage): 26.8 g; Average weight of mice (Day 2, positive control group 30 mg/kg oral gavage): 26.86 g; Average weight of mice (Day 3, positive control group 30 mg/kg oral gavage): 26.82 g; Average weight of mice (Day 4, positive control group 30 mg/kg oral gavage): 26.8 g; Average weight of mice (Day 5, positive control group 30 mg/kg oral gavage): 26.52 g; Average weight of mice (Day 6, positive control group 30 mg/kg oral gavage): 25.74 g; Average weight of mice (Day 7, positive control group 30 mg/kg oral gavage): 24.38 g; Average weight of mice (Day 8, positive control group 30 mg/kg oral gavage): 22.92 g; Average weight of mice (Day 9, positive control group 30 mg/kg oral gavage): 22.3 g; Average weight of mice (Day 10, positive control group 30 mg/kg oral gavage): 22.34 g; Average weight of mice (Day 11, positive control group 30 mg/kg oral gavage): 22.68 g; Average weight of mice (Day 12, positive control group 30 mg/kg oral gavage): 23.14 g; Average weight of mice (Day 13, positive control group 30 mg/kg oral gavage): 23.52 g; Average weight of mice (Day 14, positive control group 30 mg/kg oral gavage): 23.52 g; Average colon length of mice (positive control group 30 mg/kg oral gavage): 6.0 cm |
| CC(C)=C1OC(C)=C(O[C@@H]2O[C@H](COC(=O)C(C)(C)C)[C@@H](OC(=O)C(C)(C)C)[C@H](OC(=O)C(C)(C)C)[C@H]2OC(=O)C(C)(C)C)C1=O [Compound I-6] | better than the positive control drug | significant improvement in the reduction of weight in mice | 26.9 g | 26.94 g | 26.9 g | 26.9 g | 26.64 g | 26.2 g | 24.52 g | 24.38 g | 24.42 g | 24.42 g | 24.66 g | 24.94 g | 24.72 g | 24.5 g | 5.9 cm |  |
| COC(=O)[C@H]1O[C@@H](OC2=C(C)OC(=C(C)C)C2=O)[C@H](OC(C)=O)[C@@H](OC(C)=O)[C@@H]1OC(C)=O [Compound I-5] | better than the positive control drug | significant improvement in the reduction of weight in mice | 26.9 g | 26.92 g | 26.88 g | 26.9 g | 26.58 g | 26.32 g | 25.3 g | 23.6 g | 23.24 g | 23.24 g | 24.2 g | 24.48 g | 24.5 g | 24.68 g | 6.0 cm |  |
